Columns and labels:
[1] = target: T1, IL-33 (Homo sapiens, UniProt O95760); assay: Inhibition of IL-6 secretion by IL-33 inhibition in HMC-1 cells (IL-6 ELISA); assay type: cell-based; conditions: HMC1, HMC-1 cells with IL-33, 24 h, negative values indicate increased IL-6 secretion
T1 sequence (O95760 95-270): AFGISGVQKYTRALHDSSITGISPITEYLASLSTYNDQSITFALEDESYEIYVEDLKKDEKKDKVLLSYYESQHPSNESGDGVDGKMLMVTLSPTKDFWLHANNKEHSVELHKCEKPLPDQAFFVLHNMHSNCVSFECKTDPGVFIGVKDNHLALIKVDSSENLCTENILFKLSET
Method: First, HMC-1, a human mast cell line, was cultured until an appropriate number of cells was maintained in a 96-well plate. Mixtures of IL-33 and different concentrations (0.3, 3, and 30 μM) of each of the inventive compounds were treated on cells, incubated at 37° C. for 24 h, and centrifuged. The supernatants were analyzed for IL-6 secretion using an IL-6 ELISA kit (Biolegend, USA).

[2] = target: T2, TSLP-TSLPR interaction (Homo sapiens, UniProt Q969D9); assay: ELISA-based TSLP-TSLPR interaction assay; assay type: binding; conditions: for inhibition at 100 µM: compound 0.1 mM; for inhibition at 100 µM / inhibition at 300 µM / inhibition at 1000 µM: FLAG-TSLP / TSLPR-His ELISA, OD 450 nm; for inhibition at 300 µM: compound 0.3 mM; for inhibition at 1000 µM: compound 1 mM
T2 construct: made in house
Method: To this end, home-made FLAG-TSLP protein and TSLPR-His protein were used to establish an ELISA-based TSLP-TSLPR interaction assay for measuring reactions with HRP. The inhibitory activities of the inventive compounds were evaluated by the interaction assay.
ELISA assay was conducted using an Ni-NTA HisSorb plate (Qiagen, Germany). 100 μL of a solution of TSLPR C-terminally tagged with hexahistidine (His) was dispensed into each well of the plate and incubated at room temperature for 2 h. After each well was washed twice with 200 μL of PBS and 0.05% Tween-20, 100 μL of a solution of each of the inventive compounds as a sample and 100 μL of TSLP N-terminally tagged with FLAG was dispensed into the well. After incubation at 4° C. overnight, each well was washed twice and treated with 100 μL of a blocking buffer (PBS-0.05% Tween 20 and 1% nonfat dry milk). The plate was washed twice, coated with 100 μL of a monoclonal anti-FLAG horseradish peroxidase antibody (Sigma-Aldrich Co., USA) for 2 h, and incubated at room temperature. Then, each well was washed 5 times, treated with 200 μL of a solution of o-phenylenediaminedihydrochloride (Sigma-Aldrich Co., USA), incubated for 30 min, and added with 1 N HCl.
Optical densities (ODs) were measured at 450 nm using a microplate spectrophotometer. The inhibitory effect of the compound on TSLP-TSLPR interaction was calculated using the following equation: Inhibition (inhibitory effect) (%)=(1−ODsample/ODcontrol)×100

[3] = system: HDM-induced allergic airway inflammation; assay: House dust mite (HDM)-induced allergic airway inflammation mouse models; assay type: in vivo; conditions: 200 μg intraperitoneal, BALB/c mice, day 11, vs untreated controls (FIG. 4 and 5)
Method: Splenocytes were isolated from DO11.10 mice and ˜1×10^6CD4T cells were transferred to pure BALB/c mice by intravenous injection. For 3 days from the next day, 100 μg of a mixture of HDM (Dermatophagoidesfarinae 50 μg, Dermatophagoidespteronyssinus 50 μg, Greer Laboratories, Inc., USA) and OVA (Sigma-Aldrich Co., USA) was administered intranasally to the mice. From day 2 after administration, the mice were treated with 200 μg of each of the inventive compounds or PBS (for control mice) three times daily through the intraperitoneal route. After the mice were euthanized on day 11, the numbers of total cells and eosinophils in the airways were checked. The treatment schedule with the Formula 5 (KB 1517) and Formula 10 (KB 1518) (200 μg each) in house dust mite (HDM)-induced allergic airway inflammation mouse models is shown in FIG. 8.

[4] = target: T1, IL-33; assay: Inhibition of IL-6 secretion by IL-33 inhibition in HMC-1 cells (IL-6 ELISA); assay type: cell-based; conditions: HMC1, HMC-1 cells with IL-33, 24 h, negative values indicate increased IL-6 secretion; remark: listed apart in the source

| Compound | inhibition at 3 µM [1] [%] | inhibition at 100 µM [2] [%] | inhibition at 300 µM [2] [%] | inhibition at 0.3 µM [1] [%] | Inhibition (%) ([2]; 1 mg/mL FLAG tag-free TSLP as competitor) | inhibition at 0.03 µM [4] [%] | inhibition at 1000 µM [2] [%] | number of eosinophils in the airways [3] | number of total cells in the airways [3] |
| --- | --- | --- | --- | --- | --- | --- | --- | --- | --- |
| CN(C)CCn1c(=O)c2nc(-c3ccccc3)oc2c2ccccc21 [Compound 2, 5-(2-(dimethylamino)ethyl)-2-phenyloxazolo[4,5-c]quinolin-4(5H)-one] | -11.8 | 26.7 | 49 | – | – | – | 66.9 | – | – |
| CN(C)CCn1c(=O)c2nc(-c3ccc(Cl)cc3)oc2c2ccccc21 [Compound 4, 2-(4-chlorophenyl)-5-(2-(dimethylamino)ethyl)oxazolo[4,5-c]quinolin-4(5H)-one] | 29.7 | 28.8 | 46.6 | 22.5 | – | – | – | – | – |
| CN(C)CCn1c(=O)c2nc(-c3ccc(C(F)(F)F)cc3)oc2c2ccccc21 [Compound 5, 5-(2-(dimethylamino)ethyl)-2-(4-(trifluoromethyl)phenyl)oxazolo[4,5-c]quinolin-4(5H)-one] | 28.2 | 23.2 | 29.6 | 30.4 | – | – | – | significantly reduced | significantly reduced |
| CN(C)CCn1c(=O)c2nc(-c3ccc(F)cc3)oc2c2ccccc21 [Compound 3, 5-(2-(dimethylamino)ethyl)-2-(4-fluorophenyl)oxazolo[4,5-c]quinolin-4(5H)-one] | 29.8 | 17.7 | 27.5 | – | – | – | – | – | – |
| CN(C)CCOc1nc2ccccc2c2oc(-c3ccccc3)nc12 [Compound 7, N,N-dimethyl-2-((2-phenyloxazolo[4,5-c]quinolin-4-yl)oxy)ethanamine] | 35.6 | 27.8 | 54.6 | – | – | – | 57.2 | – | – |

Second part, led by results:

| inhibition at 3 µM [1] [%] | inhibition at 100 µM [2] [%] | inhibition at 300 µM [2] [%] | inhibition at 0.3 µM [1] [%] | Inhibition (%) ([2]; 1 mg/mL FLAG tag-free TSLP as competitor) | inhibition at 0.03 µM [4] [%] | Compound | inhibition at 1000 µM [2] [%] | number of eosinophils in the airways [3] | number of total cells in the airways [3] |
| --- | --- | --- | --- | --- | --- | --- | --- | --- | --- |
| -57.8 | 25.8 | 54.7 | – | – | – | COc1ccc(-c2nc3c(=O)n(CCN(C)C)c4ccccc4c3o2)cc1 [Compound 6, 5-(2-(dimethylamino)ethyl)-2-(4-methoxyphenyl)oxazolo[4,5-c]quinolin-4(5H)-one] | – | – | – |
| – | – | – | – | 40.7 | – | FLAG tag-free TSLP: TSLP protein without FLAG tag, 1 mg/mL, competitor control in the TSLP-TSLPR ELISA [reference compound] | – | – | – |
| 51.3 | – | – | 49.3 | – | 32.7 | CN(C)CCOc1nc2ccccc2c2oc(-c3ccc(C(F)(F)F)cc3)nc12 [Compound 10, N,N-dimethyl-2-((2-(4-(trifluoromethyl)phenyl)oxazolo[4,5-c]quinolin-4-yl)oxy)ethanamine] | – | significantly reduced | significantly reduced |
